Reference: ChEMBL document CHEMBL1909046, “DrugMatrix in vitro pharmacology data”

Key:
[1] = DRUGMATRIX: Glutamate, Kainate radioligand binding (ligand: [3H] Kainic acid); assay type: cell membranes, Rattus norvegicus, Wistar, Brain, Membrane; conditions: Not Active = under 50% inhibition at 10 µM
[2] = biological target: Beta-3 adrenergic receptor (Homo sapiens, UniProt P13945); assay: DRUGMATRIX: Adrenergic beta3 radioligand binding (ligand: [125I] Cyanopindolol); assay type: cell membranes, HEK293, Membrane; conditions: hek293; Not Active = under 50% inhibition at 10 µM
Beta-3 adrenergic receptor, sequence (P13945 whole entry): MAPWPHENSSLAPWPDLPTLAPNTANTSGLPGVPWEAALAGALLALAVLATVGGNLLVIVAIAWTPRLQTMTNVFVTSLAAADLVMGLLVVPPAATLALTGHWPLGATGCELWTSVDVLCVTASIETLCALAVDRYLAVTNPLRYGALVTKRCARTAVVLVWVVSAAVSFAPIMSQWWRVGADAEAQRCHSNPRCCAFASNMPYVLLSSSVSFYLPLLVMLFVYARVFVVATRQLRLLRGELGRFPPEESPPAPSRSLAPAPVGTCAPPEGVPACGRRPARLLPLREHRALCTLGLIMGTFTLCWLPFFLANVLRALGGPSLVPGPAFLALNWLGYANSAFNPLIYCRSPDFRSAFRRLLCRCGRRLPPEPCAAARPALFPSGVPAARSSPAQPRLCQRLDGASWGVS

[3] = DRUGMATRIX: Atrial Natriuretic Factor (ANF) radioligand binding (ligand: [125I] ANF (rat)); assay type: cell membranes, Cavia porcellus, Dunkin-Hartley, Adrenal gland, Membrane; conditions: Not Active = under 50% inhibition at 10 µM
Substance-K receptor = biological target: T1, Substance-K receptor (Homo sapiens, UniProt P21452); assay type: cell membranes, CHO, Membrane; conditions: cho; further: in other assays of this panel Not Active means under 50% inhibition at 10 µM
T1 sequence (P21452 whole entry): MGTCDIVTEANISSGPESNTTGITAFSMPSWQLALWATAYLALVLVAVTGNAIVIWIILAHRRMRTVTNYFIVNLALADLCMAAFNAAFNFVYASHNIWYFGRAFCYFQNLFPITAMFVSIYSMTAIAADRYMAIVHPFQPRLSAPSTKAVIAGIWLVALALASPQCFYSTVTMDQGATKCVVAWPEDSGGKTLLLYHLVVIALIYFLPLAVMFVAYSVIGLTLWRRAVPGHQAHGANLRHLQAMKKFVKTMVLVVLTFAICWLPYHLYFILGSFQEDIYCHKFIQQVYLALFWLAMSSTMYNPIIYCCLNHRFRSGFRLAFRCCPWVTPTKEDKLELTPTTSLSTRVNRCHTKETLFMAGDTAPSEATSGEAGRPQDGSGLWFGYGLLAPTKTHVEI

[4] = biological target: T2, 5-hydroxytryptamine receptor 1A (Rattus norvegicus, UniProt P19327); assay type: cell membranes, CHO-K1, Membrane; conditions: cho-k1; further: in other assays of this panel Not Active means under 50% inhibition at 10 µM
T2 sequence (P19327 whole entry): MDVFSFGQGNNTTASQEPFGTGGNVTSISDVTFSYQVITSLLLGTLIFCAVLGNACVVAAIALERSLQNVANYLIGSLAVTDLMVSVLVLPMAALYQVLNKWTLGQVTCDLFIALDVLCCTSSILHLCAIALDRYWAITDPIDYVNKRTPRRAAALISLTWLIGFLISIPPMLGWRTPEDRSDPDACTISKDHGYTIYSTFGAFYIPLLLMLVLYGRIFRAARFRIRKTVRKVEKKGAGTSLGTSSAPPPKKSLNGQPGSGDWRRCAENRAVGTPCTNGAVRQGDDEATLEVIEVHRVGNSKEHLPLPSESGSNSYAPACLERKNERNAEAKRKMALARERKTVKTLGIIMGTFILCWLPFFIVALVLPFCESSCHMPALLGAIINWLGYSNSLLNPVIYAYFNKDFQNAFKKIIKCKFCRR

[5] = biological target: T3, Vasoactive intestinal polypeptide receptor 1 (Homo sapiens, UniProt P32241); assay type: cell membranes, Membrane; conditions: ht-29; further: in other assays of this panel Not Active means under 50% inhibition at 10 µM
T3 sequence (P32241 whole entry): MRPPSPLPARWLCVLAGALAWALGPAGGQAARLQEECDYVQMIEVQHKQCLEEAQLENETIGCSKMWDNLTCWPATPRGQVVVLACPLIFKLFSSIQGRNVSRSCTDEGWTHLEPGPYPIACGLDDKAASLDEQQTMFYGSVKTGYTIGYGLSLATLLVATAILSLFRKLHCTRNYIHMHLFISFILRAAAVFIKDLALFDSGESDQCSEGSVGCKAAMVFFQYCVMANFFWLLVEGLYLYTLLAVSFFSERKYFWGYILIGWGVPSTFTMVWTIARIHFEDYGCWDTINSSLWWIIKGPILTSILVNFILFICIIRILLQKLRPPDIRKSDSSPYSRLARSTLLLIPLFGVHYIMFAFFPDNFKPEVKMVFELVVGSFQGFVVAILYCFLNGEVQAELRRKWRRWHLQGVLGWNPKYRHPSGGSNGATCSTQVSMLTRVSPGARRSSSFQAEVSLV

Estrogen receptor = biological target: T4, Estrogen receptor (Homo sapiens, UniProt P03372); conditions: sf9; further: in other assays of this panel Not Active means under 50% inhibition at 10 µM
T4 sequence (P03372 whole entry): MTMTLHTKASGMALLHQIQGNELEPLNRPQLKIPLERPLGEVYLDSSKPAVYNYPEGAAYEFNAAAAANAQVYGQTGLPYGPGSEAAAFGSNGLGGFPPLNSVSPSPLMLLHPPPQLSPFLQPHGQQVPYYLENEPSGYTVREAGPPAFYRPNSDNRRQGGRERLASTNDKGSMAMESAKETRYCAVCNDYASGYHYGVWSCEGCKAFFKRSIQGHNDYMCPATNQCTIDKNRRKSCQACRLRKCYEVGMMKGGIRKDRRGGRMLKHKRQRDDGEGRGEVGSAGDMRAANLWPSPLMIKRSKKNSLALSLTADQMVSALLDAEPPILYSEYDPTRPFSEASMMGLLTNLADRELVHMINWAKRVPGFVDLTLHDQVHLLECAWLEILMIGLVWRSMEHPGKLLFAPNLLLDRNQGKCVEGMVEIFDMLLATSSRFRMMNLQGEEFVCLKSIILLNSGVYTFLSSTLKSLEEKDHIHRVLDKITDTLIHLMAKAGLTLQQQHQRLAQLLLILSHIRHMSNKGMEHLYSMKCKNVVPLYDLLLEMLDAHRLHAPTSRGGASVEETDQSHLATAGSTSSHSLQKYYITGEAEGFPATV

CC1=C(CC(=O)O)c2cc(F)ccc2/C1=C\c1ccc(S(C)(=O)=O)cc1 [EXISULIND]
Not Active: IC50 [1] | Ki [1] | IC50 [2] | IC50 [3] | Ki [3] | IC50 (Substance-K receptor) | IC50 [4] | IC50 [5] | IC50 (Estrogen receptor)

O=P(O)(O)C(O)(Cc1cccnc1)P(=O)(O)O [RISEDRONIC ACID]
Not Active: IC50 [1] | Ki [1] | IC50 [2] | IC50 [3] | Ki [3] | IC50 (Substance-K receptor) | IC50 [4] | IC50 [5] | IC50 (Estrogen receptor)

CN(CCOc1ccc(CC2SC(=O)NC2=O)cc1)c1ccccn1 (stereo unspecified) [ROSIGLITAZONE]
Not Active: IC50 [1] | Ki [1] | IC50 [2] | IC50 [3] | Ki [3] | IC50 (Substance-K receptor) | IC50 [4] | IC50 [5] | IC50 (Estrogen receptor)

C#CCN(C)[C@H](C)Cc1ccccc1 [SELEGILINE]
Not Active: IC50 [1] | Ki [1] | IC50 [2] | IC50 [3] | Ki [3] | IC50 (Substance-K receptor) | IC50 [4] | IC50 [5] | IC50 (Estrogen receptor)

CO[C@H]1C[C@@H]2CC[C@@H](C)[C@@](O)(O2)C(=O)C(=O)N2CCCC[C@H]2C(=O)O[C@H]([C@H](C)C[C@@H]2CC[C@@H](O)[C@H](OC)C2)CC(=O)[C@H](C)/C=C(\C)[C@@H](O)[C@@H](OC)C(=O)[C@H](C)C[C@H](C)/C=C/C=C/C=C/1C [SIROLIMUS]
Not Active: IC50 [1] | Ki [1] | IC50 [2] | IC50 [3] | Ki [3] | IC50 (Substance-K receptor) | IC50 [4] | IC50 [5] | IC50 (Estrogen receptor)

CN[C@@H]1[C@H](O)[C@H](NC)[C@H]2O[C@@]3(O)C(=O)C[C@@H](C)O[C@H]3O[C@@H]2[C@H]1O [SPECTINOMYCIN]
Not Active: IC50 [1] | Ki [1] | IC50 [2] | IC50 [3] | Ki [3] | IC50 (Substance-K receptor) | IC50 [4] | IC50 [5] | IC50 (Estrogen receptor)

COc1ncnc(NS(=O)(=O)c2ccc(N)cc2)c1OC [SULFADOXINE]
Not Active: IC50 [1] | Ki [1] | IC50 [2] | IC50 [3] | Ki [3] | IC50 (Substance-K receptor) | IC50 [4] | IC50 [5] | IC50 (Estrogen receptor)

Nc1ccc(S(=O)(=O)Nc2nccs2)cc1 [SULFATHIAZOLE]
Not Active: IC50 [1] | Ki [1] | IC50 [2] | IC50 [3] | Ki [3] | IC50 (Substance-K receptor) | IC50 [4] | IC50 [5] | IC50 (Estrogen receptor)

C[C@]12CC[C@H]3[C@@H](CCC4=CC(=O)CC[C@@]43C)[C@@H]1CC[C@@H]2O [TESTOSTERONE]
Not Active: IC50 [1] | Ki [1] | IC50 [2] | IC50 [3] | Ki [3] | IC50 (Substance-K receptor) | IC50 [4] | IC50 [5] | IC50 (Estrogen receptor)

CCS(=O)(=O)CCn1c([N+](=O)[O-])cnc1C [TINIDAZOLE]
Not Active: IC50 [1] | Ki [1] | IC50 [2] | IC50 [3] | Ki [3] | IC50 (Substance-K receptor) | IC50 [4] | IC50 [5] | IC50 (Estrogen receptor)

C[C@@H]1C[C@H]2[C@@H]3CCC4=CC(=O)C=C[C@]4(C)C3=CC[C@]2(C)[C@H]1C(=O)CN1CCN(c2cc(N3CCCC3)nc(N3CCCC3)n2)CC1 [TIRILAZAD]
Not Active: IC50 [1] | Ki [1] | IC50 [2] | IC50 [3] | Ki [3] | IC50 (Substance-K receptor) | IC50 [4] | IC50 [5] | IC50 (Estrogen receptor)

NC[C@H]1O[C@H](O[C@H]2[C@H](O)[C@@H](O[C@H]3O[C@H](CO)[C@@H](O)[C@H](N)[C@H]3O)[C@H](N)C[C@@H]2N)[C@H](N)C[C@@H]1O [TOBRAMYCIN]
Not Active: IC50 [1] | Ki [1] | IC50 [2] | IC50 [3] | Ki [3] | IC50 (Substance-K receptor) | IC50 [4] | IC50 [5] | IC50 (Estrogen receptor)

COc1ccc(CN2CCNCC2)c(OC)c1OC [TRIMETAZIDINE]
Not Active: IC50 [1] | Ki [1] | IC50 [2] | IC50 [3] | Ki [3] | IC50 (Substance-K receptor) | IC50 [4] | IC50 [5] | IC50 (Estrogen receptor)

CC(=O)O[C@H]1C[C@@H]2CC[C@@H]3[C@H](CC[C@@]4(C)[C@H]3C[C@H]([N+]3(C)CCCCC3)[C@@H]4OC(C)=O)[C@@]2(C)C[C@@H]1N1CCCCC1.[Br-] [VECURONIUM BROMIDE]
Not Active: IC50 [1] | Ki [1] | IC50 [2] | IC50 [3] | Ki [3] | IC50 (Substance-K receptor) | IC50 [4] | IC50 [5] | IC50 (Estrogen receptor)
